Laboratory results published in patent US20260325417A1, “TOPICAL SKIN COMPOSITION CONTAINING 1,3-PROPANEDIOL AS ACTIVE INGREDIENT FOR MAINTAINING MICROBIOME BALANCE IN SKIN” (ACTIVON CO.,LTD., priority 2022, published 2026).

Legend:
S. epidermidis = assay: Comparison of diol compounds, growth of beneficial bacteria; assay type: cell-based, Staphylococcus epidermidis; parameters: key to Effect on the growth of beneficial bacteria (S. epidermidis): ++: Growth promotion; +: No effect; −: Growth inhibition; − −: 50% or more growth inhibition
Description: (§1) FIG. 4 illustrates the results of a comparative analysis of the effects of diol compounds, specifically 1,3-propanediol, 2-methyl-1,3-propanediol, 1,3-butanediol, 2,3-butanediol, 1,2-pentanediol, and 1,2-hexanediol on the growth of harmful bacteria (upper graph) and beneficial bacteria (lower graph). FIG. 4A: 1,3-propanediol, FIG. 4B: 2-methyl-1,3-propanediol; FIG. 4C: 1,3-butanediol; FIG. 4D: 2,3-butanediol; FIG. 4E: 1,2-pentanediol; FIG. 4F: 1,2-Hexanediol.
(§2) • 1) Staphylococcus epidermidis ATCC 12228 and Staphylococcus aureus ATCC 6538 strains were obtained from ThermoFisher Scientific and cultured in tryptic soy broth (culture conditions: 32° C. for 18 hours). After culturing, they were diluted with 0.85% NaCl to adjust the absorbance (600 nm) to 0.5-0.6. • 2) 1,3-propanediol was obtained from Sigma-Aldrich. • 3) 2-methyl-1,3-propanediol, 1,3-butanediol, 2,3-butanediol, 1,2-pentanediol, and 1,2-hexanediol were all obtained from Sigma-Aldrich. • 4) Fructan was obtained from Sigma-Aldrich. • 5) Yeast extract was obtained from Sigma-Aldrich.

S. aureus = assay: Comparison of diol compounds, growth of harmful bacteria; assay type: cell-based, Staphylococcus aureus
Description: as §1, §2

CCCCC(O)CO (stereo not drawn) [1,2-hexanediol]
Effect on the growth of beneficial bacteria (S. epidermidis) (S. epidermidis; diol compound 0.1 wt %): ++
Effect on the growth of beneficial bacteria (S. epidermidis) (S. epidermidis; diol compound 1 wt %): −
Effect on the growth of beneficial bacteria (S. epidermidis) (S. epidermidis; diol compound 5 wt %): − − (50% or more growth inhibition)
Effect on the growth of beneficial bacteria (S. epidermidis) (S. epidermidis; diol compound 10 wt %): − − (50% or more growth inhibition)
Effect on the growth of beneficial bacteria (S. epidermidis) (S. epidermidis; diol compound 20 wt %): − − (50% or more growth inhibition)
Effect on the growth of harmful bacteria (S. aureus) (S. aureus; diol compound 0.1 wt %): +
Effect on the growth of harmful bacteria (S. aureus) (S. aureus; diol compound 1 wt %): ++
Effect on the growth of harmful bacteria (S. aureus) (S. aureus; diol compound 5 wt %): +++ (50% or more inhibition)
Effect on the growth of harmful bacteria (S. aureus) (S. aureus; diol compound 10 wt %): +++ (50% or more inhibition)
Effect on the growth of harmful bacteria (S. aureus) (S. aureus; diol compound 20 wt %): +++ (50% or more inhibition)

CCCC(O)CO (stereo not drawn) [1,2-pentanediol]
Effect on the growth of beneficial bacteria (S. epidermidis) (S. epidermidis; diol compound 0.1 wt %): ++
Effect on the growth of beneficial bacteria (S. epidermidis) (S. epidermidis; diol compound 1 wt %): −
Effect on the growth of beneficial bacteria (S. epidermidis) (S. epidermidis; diol compound 5 wt %): − − (50% or more growth inhibition)
Effect on the growth of beneficial bacteria (S. epidermidis) (S. epidermidis; diol compound 10 wt %): − − (50% or more growth inhibition)
Effect on the growth of beneficial bacteria (S. epidermidis) (S. epidermidis; diol compound 20 wt %): − − (50% or more growth inhibition)
Effect on the growth of harmful bacteria (S. aureus) (S. aureus; diol compound 0.1 wt %): +
Effect on the growth of harmful bacteria (S. aureus) (S. aureus; diol compound 1 wt %): +
Effect on the growth of harmful bacteria (S. aureus) (S. aureus; diol compound 5 wt %): +++ (50% or more inhibition)
Effect on the growth of harmful bacteria (S. aureus) (S. aureus; diol compound 10 wt %): +++ (50% or more inhibition)
Effect on the growth of harmful bacteria (S. aureus) (S. aureus; diol compound 20 wt %): +++ (50% or more inhibition)

CC(O)CCO (stereo not drawn) [1,3-butanediol]
Effect on the growth of beneficial bacteria (S. epidermidis) (S. epidermidis; diol compound 0.1 wt %): ++
Effect on the growth of beneficial bacteria (S. epidermidis) (S. epidermidis; diol compound 1 wt %): −
Effect on the growth of beneficial bacteria (S. epidermidis) (S. epidermidis; diol compound 5 wt %): −
Effect on the growth of beneficial bacteria (S. epidermidis) (S. epidermidis; diol compound 10 wt %): − − (50% or more growth inhibition)
Effect on the growth of beneficial bacteria (S. epidermidis) (S. epidermidis; diol compound 20 wt %): − − (50% or more growth inhibition)
Effect on the growth of harmful bacteria (S. aureus) (S. aureus; diol compound 0.1 wt %): +
Effect on the growth of harmful bacteria (S. aureus) (S. aureus; diol compound 1 wt %): +
Effect on the growth of harmful bacteria (S. aureus) (S. aureus; diol compound 5 wt %): ++
Effect on the growth of harmful bacteria (S. aureus) (S. aureus; diol compound 10 wt %): ++
Effect on the growth of harmful bacteria (S. aureus) (S. aureus; diol compound 20 wt %): +++ (50% or more inhibition)
